Earlier results as cited in patent US20090176772A1, “METHOD OF REVERSING LEFT VENTRICULAR REMODELING” (priority 2004, published 2009).

Test system: LV reverse remodeling
Settings: historical data, Sabbah et al. (1994) Circ. 89:2852-2859; cited from earlier work

SMILES: CCOC(=O)[C@H](CCc1ccccc1)N[C@@H](C)C(=O)N1CCC[C@H]1C(=O)O [enalapril]
- Ability to reduce LV end-diastolic volume (FIG. 1): neither ranolazine, enalapril, nor metoprolol were independently able to reduce LV end-diastolic volume
- Ability to reduce LV end-systolic volume (FIG. 2): neither ranolazine, enalapril, nor metoprolol appear to independently reduce LV end-systolic volume

SMILES: COCCc1ccc(OCC(O)CNC(C)C)cc1 (stereo not shown) [metoprolol]
- Ability to reduce LV end-diastolic volume (FIG. 1): neither ranolazine, enalapril, nor metoprolol were independently able to reduce LV end-diastolic volume
- Ability to reduce LV end-systolic volume (FIG. 2): neither ranolazine, enalapril, nor metoprolol appear to independently reduce LV end-systolic volume
